Measurements published in patent US10344019B2 (priority 2010, dated 2019).

Legend:
Assay type in all cases: cell-based
[1] = system: HCV 2a Rluc cells (NS5A chimeric genotype 2a JFH-1 replicon with genotype 2a J6 strain NS5A gene, M31 present); assay: HCV replicon reporter assay, genotype 2a J6 (M31 present); conditions: Hepatitis C virus, read-out: 2a J6
Method in brief: (§1)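 Replicons used: genotype 1b Con1, 1a H77, 2a JFH-1, and a 2a JFH-1 chimera with J6-strain NS5A (M31 present), all dicistronic.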

[2] = system: HCV 2a JFH-1 Rluc cells (dicistronic genotype 2a JFH-1 replicon, RLuc reporter); assay: microbe, parasite or virus in culture; conditions: Hepatitis C virus, genotype 2a JFH-1 RLuc replicon; read-out: 2a JFH
Method in brief: as §1

[3] = system: HCV 1b RLuc cells (dicistronic genotype 1b Con1 replicon, RLuc reporter); assay: microbe, parasite or virus in culture; conditions: Hepatitis C virus, read-out: 1b (nM)
Method in brief: as §1

[4] = system: HCV 3a RLuc cells (NS5A chimeric genotype 1b Con1 replicon with consensus genotype 3a NS5A gene); assay: microbe, parasite or virus in culture; conditions: Hepatitis C virus, read-out: 3a, genotype 3a NS5A chimeric replicon
Method in brief: (§2)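 Replicon cells stably carrying the listed RLuc-encoding dicistronic replicons were seeded and treated with DMSO serial dilutions of compound (10 mM stocks) diluted into culture medium. After 72 h, cells were lysed and Renilla luciferase activity measured. EC50 was derived by non-linear regression.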

[5] = system: HCV 1a RLuc cells (dicistronic genotype 1a H77 replicon, RLuc reporter); assay: microbe, parasite or virus in culture; conditions: Hepatitis C virus, genotype 1a H77 RLuc replicon; read-out: 1a
Method in brief: as §1

[6] = system: HCV 4a Rluc cells (NS5A chimeric genotype 1b Con1 replicon with genotype 4a NS5A gene); assay: microbe, parasite or virus in culture; conditions: Hepatitis C virus, read-out: 4a
Method in brief: as §2

[7] = system: HCV 2b Rluc cells (NS5A chimeric genotype 2a JFH-1 replicon with genotype 2b MD2b-1 NS5A gene, M31 present); assay: microbe, parasite or virus in culture; conditions: Hepatitis C virus, read-out: 2b
Method in brief: as §2

[8] = system: Q30R in genotype 1a NS5A, 1a Rluc replicon transfected into Huh-7 cured-51 cells; assay: HCV replicon assay, resistance mutant 1a Q30R; conditions: Hepatitis C virus, Huh-7, read-out: 1a Q30R
Method in brief: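 Q30R introduced into genotype 1a H77 RLuc replicon by site-directed mutagenesis; replicon RNA transfected into Huh-7 cured-51 cells.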

## COC(=O)N[C@H](C(=O)N1C[C@@H](C)C[C@H]1c1nc2ccc3cc4c(cc3c2[nH]1)OCc1cc(-c2cnc([C@@H]3C[C@H](C)CN3C(=O)[C@H](NC(=O)OC)c3ccccc3)[nH]2)ccc1-4)C(C)C [Example 573]
[1]
  EC50: 0.001 to 0.999 nM
[2]
  EC50: 0.001 to 0.999 nM
[3]
  EC50: 0.03 nM
[4]
  EC50: 0.001 to 0.99 nM
[5]
  EC50: 0.001 to 0.999 nM
[6]
  EC50: 0.001 to 0.99 nM
[7]
  EC50: 0.001 to 0.999 nM
[8]
  EC50: 0.001 to 0.999 nM

## COC(=O)N[C@H](C(=O)N1[C@H](c2nc3ccc4cc5c(cc4c3[nH]2)OCc2cc(-c3cnc(C4CCCN4C(=O)[C@@H](NC(=O)OC)C4CCOCC4)[nH]3)ccc2-5)C[C@@H]2CCC[C@@H]21)C(C)C (stereo partly drawn) [Example 575]
[1]
  EC50: 0.001 to 0.999 nM
[2]
  EC50: 0.001 to 0.999 nM
[3]
  EC50: 0.029 nM
[4]
  EC50: 0.001 to 0.99 nM
[5]
  EC50: 0.001 to 0.999 nM
[6]
  EC50: 0.001 to 0.99 nM
[7]
  EC50: 0.001 to 0.999 nM
[8]
  EC50: 0.001 to 0.999 nM

## COC[C@H]1C[C@@H](c2ncc(-c3ccc4c(c3)COc3cc5c(ccc6nc([C@@H]7C[C@H](COC)CN7C(=O)[C@@H](NC(=O)OC)C(C)C)[nH]c65)cc3-4)[nH]2)N(C(=O)[C@@H](NC(=O)OC)C(C)C)C1 [Example 579]
[1]
  EC50: 0.001 to 0.999 nM
[2]
  EC50: 0.001 to 0.999 nM
[3]
  EC50: 0.034 nM
[4]
  EC50: 0.001 to 0.99 nM
[5]
  EC50: 0.001 to 0.999 nM
[6]
  EC50: 0.001 to 0.99 nM
[7]
  EC50: 0.001 to 0.999 nM
[8]
  EC50: 0.001 to 0.999 nM

## CC#Cc1cc2nc([C@@H]3CCCN3C(=O)[C@@H](NC(=O)OC)C(C)C)[nH]c2c2ccc(-c3ccc4c(ccc5nc([C@@H]6C[C@H](COC)CN6C(=O)[C@H](NC(=O)OC)c6ccccc6)[nH]c54)c3)cc12 [Example 581]
[1]
  EC50: 0.001 to 0.999 nM
[2]
  EC50: 0.001 to 0.999 nM
[3]
  EC50: 0.007 nM
[4]
  EC50: 0.001 to 0.99 nM
[5]
  EC50: 0.001 to 0.999 nM
[6]
  EC50: 0.001 to 0.99 nM
[7]
  EC50: 0.001 to 0.999 nM
[8]
  EC50: 0.001 to 0.999 nM

## COC(=O)N[C@H](C(=O)N1C[C@@H](C)C[C@H]1c1ncc(-c2ccc3c(c2)COc2cc4c(ccc5nc([C@@H]6C[C@H](C)CN6C(=O)[C@H](NC(=O)OC)c6ccccc6)[nH]c54)cc2-3)[nH]1)C(C)C [Example 582]
[1]
  EC50: 0.001 to 0.999 nM
[2]
  EC50: 0.001 to 0.999 nM
[3]
  EC50: 0.01 nM
[4]
  EC50: 0.001 to 0.99 nM
[5]
  EC50: 0.001 to 0.999 nM
[6]
  EC50: 0.001 to 0.99 nM
[7]
  EC50: 0.001 to 0.999 nM
[8]
  EC50: 0.001 to 0.999 nM

## COC[C@H]1C[C@@H](c2nc3ccc4cc(-c5ccc6c(ccc7nc([C@@H]8C[C@H](SCC(F)(F)F)CN8C(=O)[C@@H](NC(=O)OC)C(C)C)[nH]c76)c5)ccc4c3[nH]2)N(C(=O)[C@H](NC(=O)OC)c2ccccc2)C1 [Example 584]
[1]
  EC50: 0.001 to 0.999 nM
[2]
  EC50: 0.001 to 0.999 nM
[3]
  EC50: 0.015 nM
[4]
  EC50: 0.001 to 0.99 nM
[5]
  EC50: 0.001 to 0.999 nM
[6]
  EC50: 0.001 to 0.99 nM
[7]
  EC50: 0.001 to 0.999 nM
[8]
  EC50: 0.001 to 0.999 nM

## COC(=O)N[C@H](C(=O)N1[C@@H](C)CC[C@H]1c1ncc(-c2ccc3c(c2)COc2cc4c(ccc5nc([C@@H]6CC[C@H](C)N6C(=O)[C@@H](NC(=O)OC)C(C)C)[nH]c54)cc2-3)[nH]1)C(C)C [Example 585]
[1]
  EC50: 0.001 to 0.999 nM
[2]
  EC50: 0.001 to 0.999 nM
[3]
  EC50: 0.009 nM
[4]
  EC50: 0.001 to 0.99 nM
[5]
  EC50: 0.001 to 0.999 nM
[6]
  EC50: 0.001 to 0.99 nM
[7]
  EC50: 0.001 to 0.999 nM
[8]
  EC50: 0.001 to 0.999 nM

## COC[C@H]1C[C@@H](c2ncc(-c3ccc4c(c3)COc3cc5c(ccc6nc([C@@H]7CCCN7C(=O)[C@@H](NC(=O)OC)C(C)C)[nH]c65)cc3-4)[nH]2)N(C(=O)[C@H](NC(=O)OC)c2ccccc2)C1 [Example 590]
[1]
  EC50: 0.001 to 0.999 nM
[2]
  EC50: 0.001 to 0.999 nM
[3]
  EC50: 0.014 nM
[4]
  EC50: 0.001 to 0.99 nM
[5]
  EC50: 0.001 to 0.999 nM
[6]
  EC50: 0.001 to 0.99 nM
[7]
  EC50: 0.001 to 0.999 nM
[8]
  EC50: 0.001 to 0.999 nM

## COC[C@H]1C[C@@H](c2ncc(-c3cc4c5c(c3)OCc3cc(-c6cnc([C@@H]7CC[C@H](C)N7C(=O)[C@@H](NC(=O)OC)C(C)C)[nH]6)cc(c3-5)OC4)[nH]2)N(C(=O)[C@H](NC(=O)OC)c2ccccc2)C1 [Example 596]
[1]
  EC50: 0.001 to 0.999 nM
[2]
  EC50: 0.001 to 0.999 nM
[3]
  EC50: 0.013 nM
[4]
  EC50: 0.001 to 0.99 nM
[5]
  EC50: 0.001 to 0.999 nM
[6]
  EC50: 0.001 to 0.99 nM
[7]
  EC50: 0.001 to 0.999 nM
[8]
  EC50: 0.001 to 0.999 nM
